Columns and labels:
Assay type in all cases: cell-based, murine (C57BL/6 mice)
HO-1 [1] = assay: Effect of the HO-1 inhibitor SnPP on the inhibition of pro-inflammatory mediators in LPS-stimulated macrophages; settings: 40 μM pre-treatment 12 h, SnPP 50 μM, LPS 1 μg/mL 18 h
Method: Figure 8 The effects of SnPP on the inhibition of nitrite production (A), PGE2 production (B), NF-κB DNA-binding activity (C), TNF-α production (D), and IL-1β production (E) by penstyrylpyrone (1) pre-treatment of LPS-stimulated murine peritoneal macrophages. Murine peritoneal macrophages were pre-treated for 12 h with penstyrylpyrone (1) (40μM), in the presence or absence of SnPP (50 μM) and stimulated for 18 h with LPS (1μg/mL). The nitrite (A), PGE2 (B), TNF-α (D), and IL-1β (E) concentrations and nuclear NF-κB DNA-binding activity (C) were investigated as described in Materials and Methods. […]
The production of nitrite, a stable end product of NO oxidation, was used as a measure of iNOS activity. The nitrite present in the conditioned medium was determined using a method based on the Griess reaction.
The level of PGE2, TNF-α or IL-1β present in each sample was determined using a commercially available kit from R & D Systems. […] A substrate solution was added, and the intensity of the color produced, which was measured at 450 nm (the correction wavelength was set at 540 nm or 570 nm), was proportional to the amount of PGE2, TNF-α or IL-1β present.
The DNA-binding activity of NF-κB in the nuclear extracts was measured using the TransAM kit (Active Motif, Carlsbad, CA, USA) according to the manufacturer’s instructions.

HO-1 [2] = assay: Western blotting of HO-1 protein expression in macrophages
Method: Figure 6 The effects of penstyrylpyrone (1) on the protein expression of HO-1 in murine peritoneal macrophages. Murine peritoneal macrophages were incubated for 12 h with the indicated concentrations of penstyrylpyrone (1). […] Representative blots of three independent experiments are shown. The data represent the mean ± SD of three experiments. * p < 0.05 compared with the control group.
C57BL/6 mice were purchased from Orient Bio Co. (Sungnam, Kyung-Kido, Korea). TG-elicited peritoneal macrophages were harvested four days after intraperitoneal (i.p.) injection of 3 mL of TG [37]. Peritoneal lavage was performed using 8 mL of Hanks’ Balanced Salt Solution containing 10 U/mL heparin. The cells were distributed in Roswell Park Memorial Institute medium (RPMI) supplemented with 10% heat-inactivated FBS, in 6-well tissue culture plates (5 × 10^6 cells/mL).
Western blotting analysis was performed by lysing the cells in 20 mM Tris-HCl buffer (pH 7.4) containing a protease inhibitor mixture (0.1 mM PMSF, 5 mg/mL aprotinin, 5 mg/mL pepstatin A, and 1 mg/mL chymostatin). The protein concentration was determined using a Lowry protein assay kit (P5626; Sigma Chemical Co., St. Louis, MO, USA). An equal amount of protein for each sample was resolved using 12% sodium dodecyl sulfate-polyacrylamide gel electrophoresis (SDS-PAGE) and then electrophoretically transferred onto a Hybond enhanced chemiluminescence (ECL) nitrocellulose membrane (Bio-Rad, Hercules, CA, USA). The membrane was blocked with 5% skimmed milk and sequentially incubated with primary antibody (Santa Cruz Biotechnology, Santa Cruz, CA, USA) and horseradish peroxidase-conjugated secondary antibody followed by ECL detection (Amersham Pharmacia Biotech, Piscataway, NJ, USA).

[3] = test system: anti-oxidant response element (ARE); assay: ARE-luciferase activation in macrophages; settings: 1 h, 5% FBS
Method: Figure 7 The effects of penstyrylpyrone (1) on the nuclear translocation of Nrf2 (A) and anti-oxidant response element (ARE) activation (B) in murine peritoneal macrophages. Murine peritoneal macrophages were treated with 40 μM of penstyrylpyrone (1) for 15, 30, 60, 90 and 120 min. The nuclei were fractionated from the cytosol using PER-Mammalian Protein Extraction buffer. Nrf2 protein was detected using Western blotting analysis and representative blots of three independent experiments are shown. Quiescent cells transiently transfected with ARE-luciferase or control vector were incubated for 1 h with indicated concentrations of latifolin in the presence of 5% FBS. Cell lysates were assayed for luciferase activity and depicted by fold induction by normalizing the transfection efficiency and dividing the values of each experiment relative to the control. * p < 0.05 compared to the control group.

In the case of COc1cc(/C=C/c2ccccc2)oc(=O)c1C [Penstyrylpyrone (1), penstyrylpyrone], the “Suppressive effects on LPS-stimulated NO, PGE2, TNF-α, IL-1β production and NF-κB DNA-binding activity in presence of SnPP” value (HO-1 [1]) is reported as “partially reversed by SnPP”, the “Time at which HO-1 protein expression began to increase” value (HO-1 [2]; 40 μM) is reported as 6 h and the “Time of maximum level of HO-1 protein expression” value (HO-1 [2]; 40 μM) is reported as 18 h. The HO-1 protein expression (HO-1 [2]; 5–40 μM for 12 h) was “concentration-dependent increase”, the “Concentration giving a considerable increase in HO-1 expression” value (HO-1 [2]; 12 h) was “above 10 μM” and the “ARE activation (luciferase)” value [3] was “gradually increased in a dose-dependent manner”.

From publication PMC3705412, “PTP1B Inhibitory and Anti-Inflammatory Effects of Secondary Metabolites Isolated from the Marine-Derived Fungus Penicillium sp. JF-55” (Marine Drugs, 2013)
